Laboratory results: ChEMBL document CHEMBL5241100, “Sulfonamide derivatives as potential anti-cancer agents and their SARs elucidation” (Eur J Med Chem, 2021)

How the values were obtained:
Carbonic anhydrase 9 [1] = target: T1, Carbonic anhydrase 9 (Homo sapiens, UniProt Q16790)
Carbonic anhydrase 2 = Carbonic anhydrase 2 (Homo sapiens, UniProt P00918); test: Inhibition of human CA2
Ca9-22 = test: Cytotoxicity against human Ca9-22 cells assessed as reduction in cell viability by MTT assay; assay type: functional
HSC-2 = test: Cytotoxicity against human HSC-2 cells assessed as reduction in cell viability by MTT assay; assay type: functional
Carbonic anhydrase 1 = Carbonic anhydrase 1 (Homo sapiens, UniProt P00915); test: Inhibition of human CA1
Carbonic anhydrase 9 [2] = target: T1, Carbonic anhydrase 9; test: Inhibition of human CA9
Carbonic anhydrase 12 = Carbonic anhydrase 12 (Homo sapiens, UniProt O43570); test: Inhibition of human CA12
HCT-116 = test: cells; conditions: Homo sapiens, HCT-116, 48 h
[3] = Oral bioavailability in mouse; assay type: ADME, organism-based; conditions: in vivo
[4] = target: T2, Induced myeloid leukemia cell differentiation protein Mcl-1 (Homo sapiens, UniProt Q07820); test: Inhibition of TAMRA-labeled BIM-BH3 peptide binding to 6His-tagged human recombinant Mcl-1 (171 to 327 residues) incubated for 120 mins by fluorescence polarization assay
[5] = target: Apoptosis regulator Bcl-2 (Homo sapiens, UniProt P10415); test: Inhibition of fluorescent-labeled BID-BH3 peptide binding to Bcl-2 (unknown origin) by fluorescence polarization assay
KG-1 = assay type: functional, cell-based; conditions: Homo sapiens, KG-1, 72 h
RS4-11 = assay type: functional, cell-based; conditions: Homo sapiens, RS4-11, 72 h
HL-60 = assay type: functional, cell-based; conditions: Homo sapiens, HL-60, 72 h
[6] = target: T2, Induced myeloid leukemia cell differentiation protein Mcl-1; test: Inhibition of fluorescent-labeled BID-BH3 peptide binding to Mcl-1 (unknown origin) by fluorescence polarization assay
Jurkat = assay type: functional, cell-based; conditions: Homo sapiens, 72 h
MOLT-4 = assay type: functional, cell-based; conditions: Homo sapiens, MOLT-4, 72 h
[7] = target: T2, Induced myeloid leukemia cell differentiation protein Mcl-1; test: Inhibition of fluorescent-labeled BID-BH3 peptide binding to Mcl-1 (unknown origin) incubated for 20 mins by fluorescence polarization assay
Carbonic anhydrase 9 [8] = target: T1, Carbonic anhydrase 9; test: Inhibition of carbonic anhydrase 9 (unknown origin) using 4-nitrophenylacetate as substrate by UV/visible spectrophotometer analysis
DNA topoisomerase 1 = DNA topoisomerase 1 (Homo sapiens, UniProt P11387); test: Inhibition of topoisomerase 1 (unknown origin) assessed as relaxation of supercoiled […] incubated for 30 mins ethidium bromide staining based UV transilluminator analysis
[9] = Inhibition of topoisomerase 2 (unknown origin) assessed as relaxation of supercoiled kDNA incubated for 30 mins ethidium bromide staining based UV transilluminator analysis; parameters: species or system Homo sapiens
Aromatase = Aromatase (Homo sapiens, UniProt P11511); test: Inhibition of human aromatase preincubated with NADPH regenerating system for 10 mins followed by substrate addition by fluorescence based analysis
HepG2 = test: Antiproliferative activity against human HepG2 cells assessed as inhibition of cell growth by SRB assay; assay type: functional, cell-based
A-375 = test: Cytotoxicity against human A-375 cells assessed as inhibition of cell growth; assay type: functional
[10] = target: T2, Induced myeloid leukemia cell differentiation protein Mcl-1; test: Inhibition of FITC-labeled BID-BH3 peptide binding to Mcl-1 (unknown origin) by fluorescence polarization assay
MOLM-13 = test: Antitumor activity against human MOLM-13 cells xenografted in mouse assessed as tumor growth inhibition administered with carfilzomib; assay type: functional
OPM-2 = test: Antitumor activity against firefly luciferase-labeled human OPM-2 cells xenografted in mouse assessed as tumor growth inhibition at 20 mg/kg, po administered once daily with carfilzomib at 3 mg/kg, iv administered twice weekly and measured after 19 days; assay type: functional; conditions: OPM-2, 456 h, time 19 day
[11] = Half life in iv dosed mouse; assay type: ADME, organism-based; conditions: in vivo

T2 sequence (Q07820 whole entry, the tested form may be a part): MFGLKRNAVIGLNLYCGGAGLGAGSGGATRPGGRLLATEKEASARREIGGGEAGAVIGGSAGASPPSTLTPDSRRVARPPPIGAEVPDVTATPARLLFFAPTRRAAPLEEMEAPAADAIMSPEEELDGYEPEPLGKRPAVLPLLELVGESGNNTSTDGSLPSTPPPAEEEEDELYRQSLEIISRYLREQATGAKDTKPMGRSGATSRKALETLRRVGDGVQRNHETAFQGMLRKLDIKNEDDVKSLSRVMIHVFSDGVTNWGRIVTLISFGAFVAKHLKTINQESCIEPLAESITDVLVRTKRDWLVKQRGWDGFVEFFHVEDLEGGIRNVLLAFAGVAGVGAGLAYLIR
Sequence of Apoptosis regulator Bcl-2 (P10415 whole entry): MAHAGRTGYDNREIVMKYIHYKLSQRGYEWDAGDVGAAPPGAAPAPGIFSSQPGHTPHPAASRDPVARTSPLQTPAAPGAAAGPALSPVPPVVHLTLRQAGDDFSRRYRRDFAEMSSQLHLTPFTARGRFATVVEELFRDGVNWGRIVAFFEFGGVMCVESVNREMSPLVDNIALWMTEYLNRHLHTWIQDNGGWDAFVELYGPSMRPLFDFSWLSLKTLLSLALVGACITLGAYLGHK
Sequence of Carbonic anhydrase 1 (P00915 whole entry): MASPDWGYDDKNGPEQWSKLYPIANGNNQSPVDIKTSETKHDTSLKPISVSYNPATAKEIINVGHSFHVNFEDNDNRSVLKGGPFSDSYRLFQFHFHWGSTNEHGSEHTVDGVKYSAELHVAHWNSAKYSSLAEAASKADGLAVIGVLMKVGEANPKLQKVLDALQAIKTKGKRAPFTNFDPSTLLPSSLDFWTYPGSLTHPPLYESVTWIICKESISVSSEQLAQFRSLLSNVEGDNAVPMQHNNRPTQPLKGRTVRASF
Sequence of Carbonic anhydrase 12 (O43570 whole entry): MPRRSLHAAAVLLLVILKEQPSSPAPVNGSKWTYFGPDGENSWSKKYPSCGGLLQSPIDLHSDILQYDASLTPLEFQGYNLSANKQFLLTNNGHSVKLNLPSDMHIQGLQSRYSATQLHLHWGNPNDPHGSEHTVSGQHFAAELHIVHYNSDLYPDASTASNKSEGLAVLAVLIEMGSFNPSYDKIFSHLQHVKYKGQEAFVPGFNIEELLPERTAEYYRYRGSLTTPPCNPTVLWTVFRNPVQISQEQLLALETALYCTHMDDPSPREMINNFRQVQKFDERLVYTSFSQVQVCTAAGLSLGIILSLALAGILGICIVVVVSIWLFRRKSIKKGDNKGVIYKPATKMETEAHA
Sequence of DNA topoisomerase 1 (P11387 whole entry): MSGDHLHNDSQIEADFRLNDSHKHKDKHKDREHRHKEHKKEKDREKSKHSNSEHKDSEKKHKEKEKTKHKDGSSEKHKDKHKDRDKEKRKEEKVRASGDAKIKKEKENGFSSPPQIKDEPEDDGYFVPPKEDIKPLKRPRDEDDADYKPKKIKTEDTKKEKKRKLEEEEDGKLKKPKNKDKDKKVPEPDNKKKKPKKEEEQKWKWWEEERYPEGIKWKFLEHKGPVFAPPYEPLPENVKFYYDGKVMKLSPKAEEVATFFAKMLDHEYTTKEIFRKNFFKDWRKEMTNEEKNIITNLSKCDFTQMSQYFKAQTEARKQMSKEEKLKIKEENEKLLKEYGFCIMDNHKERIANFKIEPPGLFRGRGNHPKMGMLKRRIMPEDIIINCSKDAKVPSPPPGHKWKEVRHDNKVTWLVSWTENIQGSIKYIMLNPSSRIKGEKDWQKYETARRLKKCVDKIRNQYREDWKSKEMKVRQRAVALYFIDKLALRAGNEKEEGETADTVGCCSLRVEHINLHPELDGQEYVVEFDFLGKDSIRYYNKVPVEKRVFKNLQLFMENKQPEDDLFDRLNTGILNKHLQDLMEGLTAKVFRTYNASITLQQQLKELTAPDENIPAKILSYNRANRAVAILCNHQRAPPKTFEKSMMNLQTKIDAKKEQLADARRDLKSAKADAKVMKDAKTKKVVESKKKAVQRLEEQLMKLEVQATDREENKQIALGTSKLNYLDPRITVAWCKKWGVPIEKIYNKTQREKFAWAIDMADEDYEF
Sequence of Aromatase (P11511 whole entry): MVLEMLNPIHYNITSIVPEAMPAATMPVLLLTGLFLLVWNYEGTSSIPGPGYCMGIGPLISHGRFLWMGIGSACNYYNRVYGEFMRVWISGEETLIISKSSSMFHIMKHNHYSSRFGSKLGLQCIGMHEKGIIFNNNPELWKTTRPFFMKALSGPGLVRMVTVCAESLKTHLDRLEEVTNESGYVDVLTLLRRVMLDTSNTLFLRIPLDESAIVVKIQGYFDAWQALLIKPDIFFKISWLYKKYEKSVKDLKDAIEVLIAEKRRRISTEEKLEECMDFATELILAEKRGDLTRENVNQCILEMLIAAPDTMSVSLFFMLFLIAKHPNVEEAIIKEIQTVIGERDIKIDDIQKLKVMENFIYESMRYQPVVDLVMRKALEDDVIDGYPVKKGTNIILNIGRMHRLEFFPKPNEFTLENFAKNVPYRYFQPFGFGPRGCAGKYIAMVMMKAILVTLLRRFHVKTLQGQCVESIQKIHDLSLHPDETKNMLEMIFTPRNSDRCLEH

NS(=O)(=O)c1ccc(O)cc1
IC50 (Carbonic anhydrase 9 [1]): 32 µM

COc1cc(C2CC(c3cccs3)=NN2c2ccc(S(N)(=O)=O)cc2)cc(OC)c1OC (stereo not given)
Ki (Carbonic anhydrase 2): 0.089 µM
CC50 (Ca9-22): 6.3 µM
CC50 (HSC-2): 6.3 µM
Ki (Carbonic anhydrase 1): ≥ 0.23 µM
Ki (Carbonic anhydrase 9 [2]): ≥ 0.044 µM
Ki (Carbonic anhydrase 12): ≥ 0.009 µM

NS(=O)(=O)c1ccc(CC/N=C2\NC(=O)/C(=C3/C(=O)Nc4ccc(F)cc43)S2)cc1
IC50 (HCT-116): 3.67 µM

CC[C@@H]1CC/C=C/[C@H](O)[C@@H]2CC[C@H]2CN2C[C@@]3(CCCc4cc(Cl)ccc43)COc3ccc(cc32)C(=O)NS1(=O)=O
bioavailability [3]: 6%

COc1cc(C2CC(c3ccc(F)cc3)=NN2c2ccc(S(N)(=O)=O)cc2)cc(OC)c1OC (stereo not given)
Ki (Carbonic anhydrase 2): 0.089 µM
CC50 (Ca9-22): 6.3 µM
CC50 (HSC-2): 6.3 µM
Ki (Carbonic anhydrase 1): ≥ 0.23 µM
Ki (Carbonic anhydrase 9 [2]): ≥ 0.044 µM
Ki (Carbonic anhydrase 12): ≥ 0.009 µM

CO[C@@H]1O[C@H](Cn2cc(COc3ccc(S(N)(=O)=O)cc3)nn2)[C@@H](O)[C@H](O)[C@H]1O
IC50 (Carbonic anhydrase 9 [1]): 0.007 µM

O=C1NSCCOCCCCCCN2C[C@@]3(CCc4cc(Cl)ccc43)COc3ccc1cc32
IC50 [4]: 0.01 µM

O=C(NS(=O)(=O)c1ccc(Cl)c([N+](=O)[O-])c1)[C@@H]1Cc2cc(Br)c(OCc3ccc(-c4ccccc4)cc3)c(Br)c2CC1Cc1ccc([N+](=O)[O-])cc1 (stereo not given in full)
Ki [5]: 0.41 µM
IC50 (KG-1): 12.8 µM
IC50 (RS4-11): 12.8 µM
IC50 (HL-60): 12.8 µM
Ki [6]: 0.26 µM
IC50 (Jurkat): 12.8 µM
IC50 (MOLT-4): 12.8 µM

O=C(NS(=O)(=O)c1ccc(Cl)c([N+](=O)[O-])c1)c1nn(Cc2ccc(Cl)c(Cl)c2)c2ccccc12
Ki [7]: 0.43 µM

CC(C)CN1C[C@H](c2ccc(Cl)cc2Cl)Oc2ccc(C(=O)O)cc21
IC50 [4]: 2.1 µM

Nc1ccc(S(=O)(=O)Nc2ccsc2-c2nc(-c3ccccc3)no2)cc1
IC50 (Carbonic anhydrase 9 [8]): 0.74 µM

N#Cc1ccc(CC2Cc3c(cc(Br)c(OCc4ccc(-c5ccccc5)cc4)c3Br)C[C@H]2C(=O)NS(=O)(=O)c2ccc(Cl)c([N+](=O)[O-])c2)cc1 (stereo not given in full)
Ki [5]: 0.45 µM
IC50 (KG-1): 12.8 µM
IC50 (RS4-11): 12.8 µM
IC50 (HL-60): 12.8 µM
Ki [6]: 0.35 µM
IC50 (Jurkat): 12.8 µM
IC50 (MOLT-4): 12.8 µM

CC1CCN(S(=O)(=O)c2ccc(-c3ccno3)cc2)CC1
IC50 (DNA topoisomerase 1): 27.8 µM
IC50 [9]: 33.6 µM

COc1cc2c(cc1OC)CN(S(=O)(=O)c1cccc(-n3cc(COc4ccc5ccccc5c4)nn3)c1)CC2
IC50 (Aromatase): 0.07 µM

CC1CCN(S(=O)(=O)c2ccc(C(=O)c3coc4ccc(O)cc34)cc2)CC1
IC50 (HepG2): 6.2 µM

Cc1cc(S(=O)(=O)N2CC(C(=O)O)Cc3ccccc32)cc(C)c1Cl (racemic)
GI50 (A-375): 50 µM
Ki [10]: 0.12 µM

Cc1cc2c(C(C)C)c(O)c(O)c(C=O)c2c(O)c1-c1c(C)cc2c(C(C)C)c(O)c(O)c(C=O)c2c1O [GOSSYPOL]
Ki [7]: 0.45 µM

CO[C@H]1/C=C/C[C@H](C)[C@@H](C)S(=O)(=O)NC(=O)c2ccc3c(c2)N(C[C@@H]2CC[C@H]21)C[C@@]1(CCCc2cc(Cl)ccc21)CO3 [TAPOTOCLAX]
bioavailability [3]: 32%
inhibition (INH) (MOLM-13): 99%
inhibition in vivo at 20 mg/kg (OPM-2): 99%
half-life [11]: 14 h
